This is an account of results in article PMC3853091, “Antiproliferative effects of lanreotide autogel in patients with progressive, well-differentiated neuroendocrine tumours: a Spanish, multicentre, open-label, single arm phase II study” (BMC Cancer, 2013).

One series has as its system advanced pancreatic NET. The note with it: patients with advanced pancreatic NET; cited from earlier work. From the text: Other treatment modalities that have shown promise as antiproliferative agents for advanced NET include mTOR or tyrosine kinase inhibitors. […] The combination of everolimus and octreotide LAR also stabilised tumour growth in patients with carcinoid NET [32].

Series [1] in a line: Lanreotide trough serum levels (validated RIA with 125I-labelled lanreotide). In kind it is in vivo, human (patients). The note with it: human, subcutaneous, mean ± SD. The protocol: Efficacy (radiological, biochemical and clinical) and pharmacokinetic (PK) assessments were performed every 12 weeks and at the final study evaluation, 28 (±5) days after the final lanreotide dose. AEs and concomitant treatments were recorded at each 4-weekly treatment visit and at the final evaluation.
(§1) Safety analyses included AEs (coded using the Medical Dictionary for Regulatory Activities [MedDRA] version 11.1), vital signs, and serum haematology and biochemistry. Blood samples for analysis of lanreotide trough serum levels and, if applicable, for evaluation of the presence and specificity of anti-lanreotide antibodies were collected at screening and at weeks 8, 20, 32, 44, 56, 68 and 92, just before drug administration.
(§2) Tumour biomarkers, serum lanreotide concentrations and anti-lanreotide antibodies were analysed in a central laboratory. Serum CgA levels were determined using a radioimmunoassay (RIA) with coefficients of variation (CVs) of 6–10% (Cisbio International, Gif-sur-Yvette, France), and urinary 5-HIAA levels were measured using high-performance liquid chromatography with CVs of 4–6% (Bio-rad Laboratories GmbH, München, Germany). Circulating lanreotide concentrations were measured using a validated RIA with [^125I]-labelled lanreotide as a competitor for the quantification of lanreotide. During assay validation, the lower limit of quantification for lanreotide was 0.078 ng/mL and CVs were 2.3–13.6%. Anti-lanreotide antibodies were detected using a radioimmunoprecipitation assay (RIPA) with […] for immune-complex precipitation and [^125I]-labelled lanreotide as the tracer. Results were expressed as the percentage of precipitation. During validation, the assay sensitivity was 1/3,200,000 using a rabbit polyclonal anti-lanreotide antibody and intra- and inter-assay precision values were <5.7% and <5.3%, respectively. The screening assay cutpoint was determined as the 95th percentile of the distribution obtained with pre-treatment samples from 22 patients from the study. […]

The nature of series [2]: Anti-lanreotide antibodies (radioimmunoprecipitation assay with confirmatory competition). It counts as in vivo, human (patients). The note with it: RIPA.
Source text: as §1
as §2, with “precipitation.” for “precipitation. During validation, the assay sensitivity was 1/3,200,000 using a rabbit polyclonal anti-lanreotide antibody and intra- and inter-assay precision values were <5.7% and <5.3%, respectively. The screening assay cutpoint was determined as the 95th percentile of the distribution obtained with pre-treatment samples from 22 patients from the study.”

For `CO[C@H]1C[C@@H]2CC[C@@H](C)[C@@](O)(O2)C(=O)C(=O)N2CCCC[C@H]2C(=O)O[C@H]([C@H](C)C[C@@H]2CC[C@@H](OCCO)[C@H](OC)C2)CC(=O)[C@H](C)/C=C(\C)[C@@H](O)[C@@H](OC)C(=O)[C@H](C)C[C@H](C)/C=C/C=C/C=C/1C` [everolimus], in the series on advanced pancreatic NET, the PFS is 11.0 months.

As for `CC(C)[C@@H]1NC(=O)[C@H](CCCCN)NC(=O)[C@@H](Cc2c[nH]c3ccccc23)NC(=O)[C@H](Cc2ccc(O)cc2)NC(=O)[C@@H](NC(=O)[C@H](N)Cc2ccc3ccccc3c2)CSSC[C@@H](C(=O)N[C@H](C(N)=O)[C@@H](C)O)NC1=O` [lanreotide], the level at 3360 h in series [1] (week 20, after five injections of 120 mg every 28 days, n = 27, read-out: Steady-state trough serum lanreotide level) stood at 5.2 ± 2 ng/mL. Moreover, in series [1] (week 32, 120 mg every 28 days, read-out: Mean trough serum lanreotide level (maximum)), the level at 5376 h was 6 ± 2.9 ng/mL. The level at 15456 h in series [1] (week 92, 120 mg every 28 days, read-out: Mean trough serum lanreotide concentration) worked out at 5.3 ± 2 ng/mL. Also, the “Patients with anti-lanreotide antibodies detected” value in series [2] (assessments after week 8, two patients, one of them temporarily) came out at 7%. In addition, in series [2] (week 8, all 25 patients tested), the “Anti-lanreotide antibodies in serum” value was “negative”.

Turning to `CCN(CC)CCNC(=O)c1c(C)[nH]c(/C=C2\C(=O)Nc3ccc(F)cc32)c1C` [sunitinib], the PFS in the series on advanced pancreatic NET is 11.4 months.
